# From paper PMC8297402, “Trifluoromethyl-substituted 3,5-bis(arylidene)-4-piperidones as potential anti-hepatoma and anti-inflammation agents by inhibiting NF-кB activation” (Journal of Enzyme Inhibition and Medicinal Chemistry, 2021)
# Assay: in vitro
# Type: cell-based
# Settings: human
# Experimental: aThe letters SI refer to the selectivity index which is the quotient of the IC50 values for normal and […]
# Preliminary safety evaluation of BAP 16
# Toxicity test on normal non-liver cell lines: To validate the safety of BAP 16, one Human embryonic lung fibroblasts cell line (HFL1), one human embryonic kidney cell line (HEK293), and one human normal lung bronchial epithelial cell line (BEAS-2B) were tested using a modified MTT assay (Dojindo Laboratories, Tokyo, Japan). F12K medium containing 10% FBS was used for culturing the HFL1 cell line, DMEM medium containing 10% FBS and 1.5 g/L sodium bicarbonate was used for culturing the HEK293 cell line, and the BEAS-2B special medium was used for culturing BEAS-2B cell line. The remaining operations were consistent with the previous […]
# human normal non-heptical cell lines (HFL1, HEK293 and BEAS-2B), which was similar to that of human normal heptical cell lines.
# Table S2. Toxicity test of BAP 16 on normal non-heptical cell lines. […]
# Acute Toxicity Studies: Animal experiments were reviewed and approved by the Binzhou Medical University Experimental Animal Committee. The acute toxicity study was investigated on the six-week-old female ICR mice (n = 30) weighing 18-22 grams (Jinan Pengyue Experimental Animal Breeding Co., Ltd.). Briefly, mice were randomly divided into three groups (n = 10/group) and administrated the BAP 16 or solvent. The three groups of mice were treated with intragastric administration of 300 mg/kg, 600 mg/kg of BAP 16 and vehicle (saline containing 0.5% CMC-Na) each day. The body weight of mice was recorded every day, and the toxicity and death of mice were monitored daily for up to day 14. On day 14, the surviving animals were dissected to observe whether the internal organs had visible tissue changes, and then the livers were taken for formaldehyde fixation, dehydration, embedding, sectioning, and HE staining. The cell images were taken using a light microscopy (Olympus, Tokyo, Japan).
compound,measurement,setting,value
O=C1C(=Cc2cccc(C(F)(F)F)c2)CN(S(=O)(=O)c2ccc(C(F)(F)F)cc2)CC1=Cc1cccc(C(F)(F)F)c1 [BAP 16],IC50,Cytotoxicity IC50 BEAS-2B,17.6 ± 2.53 µM
same,IC50,Cytotoxicity IC50 HEK293,7.19 ± 0.91 µM
same,IC50,Cytotoxicity IC50 HFL1,9.62 ± 1.52 µM
